“Also recorded” adds a separate entry of the source. Like-named read-outs stand apart in the source and are kept apart here. No end group written: not given here.
Columns and labels:
HUVECs [1] = test: tube formation assay on Matrigel; type: cell-based, human; details: 100 μM; for tube formation inhibited/decreased: compared to control group, tube lengths
Method: Chilled Matrigel (150 μl, BD Bioscience) was placed in a pre-chilled 48-well plate and incubated for 30 min at 37° C. HUVECs were treated with each peptide for 30 min and then added to the top of the solidified Matrigel. After 19 h of incubation, the tubes formed were photographed. Images were analyzed using Image J <http://rsb.info.nih.gov/ij/> to determine tube lengths.
That is, the incubated HUVEC with a new serum-free medium was incubated for 2˜4 hr and harvested the cells. After treating the harvested cells at 100 μM with the respective peptides for 30 min, the cells on the hardened Matrigel was incubated for 11˜19 hr, while observing the degree of tube formation, and measured and calculated the lengths of the tubes formed. As a result, it was observed that all the tested peptides, while varying degrees, inhibited tube formation. […] UP3 decreased tube formation by 47%, and TP1 by approximately 37%.

HUVECs [2] = test: HUVEC proliferation, MTS assay; type: cell-based, human; details: for cell viability reduced: 100 μM, compared to untreated control, 5% FBS and 10 ng/ml bFGF; for inhibition of growth of endothelial cells: 5% FBS and bFGF stimulated
Method: Cell proliferation was measured by MTS assay. HUVECs were seeded to gelatin-coated 96-well plate at 1,000 cells/well and incubated in M199 supplement media for 48 h. After 48 h, cells were incubated in serum free M199 medium for 4 h, and then treated with each peptide at indicated concentrations for 30 min. Then, the cells were stimulated with 5% FBS and 10 ng/ml bFGF, and were incubated for 48 or 72 hr. Then, assessment of cell proliferation was done by MTS assay.

[3] = test system: MDAMB231 breast cancer cells; test: cancer cell migration, modified Boyden chamber assay, EGF-induced; type: cell-based, human
Method: In order to investigate the effect of the respective peptides on cancer cell migration, modified Boyden chamber assay was conducted. MDAMB231 breast cancer cells have EGF receptor and have ability to migrate and metastasize. […] The above results also support that the peptides of the present invention can inhibit cancer cell metastasis.

HUVECs [4] = test: endothelial cell migration assay, modified Boyden chamber, VEGF-induced; type: cell-based, human; details: for cell migration reduced: VEGF-induced, compared to untreated control; for inhibition of VEGF-induced migration of endothelial cells: 0.1˜100 μM
Method: In order to evaluate the effect of the peptides of the present invention on the cell migration, the present inventors conducted cell migration assay using modified Boyden chamber. HUVECs were treated with each peptide for 30 min and then, the cells were allowed to migrate toward VEGF (2˜5 ng/ml). After 5 h, the migrated cells were fixed and stained with hematoxilin and eosin. The stained cells were photographed and counted.

in vivo angiogenesis = test: in vivo Matrigel plug assay, hemoglobin by Drabkin's reagent; design: species or system C57/BL6 mice; details: for plugs with excessive amount of hemoglobin exceeding 500 mg/dl / hemoglobin amount of Matrigel plug, median: 7 days; for hemoglobin amount / in vivo angiogenesis inhibition (words): compared to control group; for hemoglobin amount of Matrigel plug, median: mice, subcutaneous Matrigel with bFGF, VEGF, heparin and peptide
Method: In order to examine the anti-angiogenic activity of the respective peptides in vivo, Matrigel plug assay was performed. 7-week-old C57/BL6 mice (SLC, Japan) were injected subcutaneously in the midventral abdominal region with 0.6 ml of Matrigel containing the bFGF (100 ng/ml), VEGF (100 ng/ml) and heparin (15 unit) with or without peptide. After 7 days, mice were sacrificed by inhalation of CO2 gas and the Matrigel plugs were removed and photographed. To evaluate the formation of vessels, the amount of hemoglobin was quantified using Drabkin's reagent (Sigma). The Matrigel plug was sonicated in RBC lysis buffer (Sigma) and centrifuged at 14000 rpm for 20 min. The supernatant was mixed with Drabkin's reagent and incubated for 3 min. Then, absorbance was measured at 540 nm.

[5] = test system: A549 lung cancer cell line; type: cell-based, human; details: 48 hr, 5% FBS
Method: The Effect of the peptides on cancer cell proliferation was investigated using A549 lung cancer cell line. A549 cells were seeded to 96 well plate at 1,000 cells/well and incubated in DMEM medium containing 10% FBS for 48 h. After treatment of each peptide for 30 min, the proliferation of cancer cells was stimulated by 5% FBS alone. After each incubation time, MTS solution was added to each well and incubated for 2 h. Assessment of proliferation was determined by measurement of absorbance at 490 nm.

[6] = 100 μM, compared to untreated control

Row | Compound | tube formation inhibited/decreased (HUVECs [1]) | cell viability reduced (HUVECs [2]) | inhibition of growth of endothelial cells (HUVECs [2]) | inhibition of migration of breast cancer cell [3] | cell migration decreased [3, 6] [%] | cell migration reduced (HUVECs [4]; 100 μM) | inhibition of VEGF-induced migration of endothelial cells (HUVECs [4]) | plugs with excessive amount of hemoglobin exceeding 500 mg/dl (in vivo angiogenesis) | hemoglobin amount / in vivo angiogenesis inhibition (words) (in vivo angiogenesis) | hemoglobin amount of Matrigel plug, median (in vivo angiogenesis) [mg/dL] | inhibition of proliferation of A549 cancer cells (words) [5] | other results
1 | CC(C)C[C@H](NC(=O)[C@@H](NC(=O)[C@@H](NC(=O)[C@H](C)NC(=O)[C@H](CO)NC(=O)[C@H](CC(N)=O)NC(=O)[C@H](Cc1c[nH]c2ccccc12)NC(=O)[C@@H]1CCCN1)[C@@H](C)O)C(C)C)C(=O)N[C@@H](CCC(N)=O)C(=O)N[C@@H](CCC(N)=O)C(=O)N[C@H](C(=O)N[C@@H](Cc1ccc(O)cc1)C(=O)N[C@@H](Cc1c[nH]cn1)C(=O)N[C@@H](C)C(=O)N[C@@H](Cc1c[nH]cn1)C(=O)O)[C@@H](C)O [UP3, PWNSATVLQQTYHAH] | 47% | approximately 24% | inhibited growth of endothelial cells | concentration-dependently inhibited the migration | 81 | 28.6% | concentration-dependently inhibited; also recorded: significantly inhibition at concentration of 10 μM or above | showed such plugs with excessive hemoglobin | reduced median value | 4.8 | – | hemoglobin amount / in vivo angiogenesis inhibition (words) (in vivo angiogenesis; listed as UP-3): decreased amount of hemoglobin
2 | FGNGSAY [TP1, reference compound] | approximately 37% | – | – | – | – | – | – | showed such plugs with excessive hemoglobin | – | – | – | inhibition of migration of endothelial cells (HUVECs [4]; 100 μM): did not inhibit the migration of endothelial cells
3 | PWCHVLKNRRLTWEY [TP7, PWCHVLKNRRLTWEY] | approximately 93% | 65.1% | inhibited growth of endothelial cells; also recorded: strong inhibition effect | concentration-dependently inhibited the migration | 66.3 | 31.4% | concentration-dependently inhibited | did not exhibit such plugs | decreased amount of hemoglobin | 37.3 | concentration-dependently inhibited proliferation | inhibition of proliferation of A549 cancer cells (words) ([5]; listed as TP-7): inhibited proliferation of cancer cells concentration-dependently; median value of hemoglobin amount reduced to (vs untreated control) (in vivo angiogenesis; without statistical significance): ~51%
4 | PWCYVQVGLKPLVQE [UP7, PWCYVQVGLKPLVQE] | – | 69.6% | inhibited growth of endothelial cells; also recorded: strong inhibition effect | concentration-dependently inhibited the migration; also recorded: most potent inhibitory effect | 88 | approximately 72% | concentration-dependently inhibited | did not exhibit such plugs | remarkably reduced hemoglobin amount | 16.3 | concentration-dependently inhibited proliferation | inhibition of tube formation (HUVECs [1]): did not show any inhibitory effect; cell migration decreased ([3]; 10 μM): approximately 66%; inhibition of proliferation of A549 cancer cells (words) ([5]; listed as UP-7): inhibited proliferation of cancer cells concentration-dependently; hemoglobin amount / in vivo angiogenesis inhibition (words) (in vivo angiogenesis; listed as UP-7): decreased amount of hemoglobin; also recorded: most potent inhibitory activity against in vivo angiogenesis
5 | PWNSMILIGKVYTAQ [TP3, PWNSMILIGKVYTAQ] | approximately 70% | approximately 26.7% | inhibited growth of endothelial cells | concentration-dependently inhibited the migration | ~69.4 | – | – | showed such plugs with excessive hemoglobin | – | – | concentration-dependently inhibited proliferation | cell migration decreased ([3]; 1 μM, compared to untreated control): ~30%; inhibition of proliferation of A549 cancer cells (words) ([5]; listed as TP-3): inhibited proliferation of cancer cells concentration-dependently; cell migration reduced (HUVECs [4]; 0.1 μM): 15.4%

Reference: patent publication US9121015B2, “Peptide having a vascularization-suppressing activity and a use therefor” (CATHOLIC UNIVERSITY INDUSTRY ACADEMIC COOPERATION FOUNDATION, priority 2010, dated 2015)
